Read-outs that look alike come from different tables or passages of the source.
How the values were obtained:
L929 = test: MTT cytotoxicity assay, L929 fibroblasts (and selectivity index); type: cell-based, mouse; conditions: for SI (selectivity index): IC50 L929 divided by average IC50 of the breast cancer cell lines
Method: (§1) The cytotoxicity of 1–11CA was assessed against human breast cancer MCF-7 and MDA-MB-231 cells, and non-tumorigenic adherent mouse fibroblast connective tissue L929 cells using the MTT assay after 24 and 72 h (Tables S5 ^† and Table 1, respectively).
(§2) Then, necessary dilutions were made using the supplement DMEM, to prepare the range of tested concentrations. Since DMSO was used to solubilize the compounds, a supplemented DMEM + DMSO (at the same percentage as in the sequential dilutions) was considered as a control in the 3-[4,5-dimetylthiazole-2-yl]-2,5-diphenyltetrazolium bromide (MTT) assay.
(§3) L929, MCF-7, and MDA-MB-231 cell lines were cultured in DMEM supplemented with 10% (v/v) FBS and 1% (v/v) of penicillin–streptomycin. The cells were incubated in a humidified chamber at 37 °C under saturated air with a 5% CO2 atmosphere. Cells were passed at 80%–90% of confluency with 0.25% (w/v) trypsin and the cell culture media was changed every 2–3 days.
(§4) The compounds were tested on two breast cancer cell lines (MCF-7 and MDA-MB-231) and L929 fibroblasts, used as a reference for the safety evaluation according to ISO 10993-1:2009 “Biological evaluation of medical devices”. Cells were seeded on sterile 96-well plates at 50 000 cells per well (L929) and 20 000 cells per well (MCF-7 and MDA-MB-231) in supplemented DMEM medium (100 μL) for 24 h. The culture medium was removed and new media containing different concentrations of the compounds (0–1000 μM) was added to the wells (100 μL). Control cells were incubated under the same conditions in the absence of a compound. Cells were incubated for 24 and 72 h under the same conditions described above. Then, the medium was removed, and the cells were incubated with 3-(4,5-dimethylthiazol-2-yl)-2,5-diphenyltetrazolium bromide (MTT; 0.5 mg mL^−1) for 3 h. After this time, the medium was removed, and formazan crystals were solubilized with DMSO (100 μL per well). The absorbance in each well was read on a SynergyTM HT Multimode microplate reader (BioTek Instruments; Winooski, VT, USA) at 570 and 630 nm (for background correction), and the cell viability was calculated according to the following equation (eqn (1)):1 [drawing 3] where OD570(sample) and OD630(sample) are the optical densities of the solutions containing the compounds and OD570(control) and OD630(control) are controls without compound.
(§5) Each apoptosis value determination represents the mean ± standard deviation of 2 independent assays. The IC50 values were obtained using GraphPad Prism software and ANOVA (analysis of variance) was performed to determine the statistical difference between the IC50 values of different cell lines.

MCF-7 = test: MTT cytotoxicity assay, MCF-7 cells; type: cell-based, human
Method: as §1, §2, §3, §4, §5

MDA-MB-231 = test: MTT cytotoxicity assay, MDA-MB-231 cells; type: cell-based, human
Method: as §1, §2, §3, §4, §5

[1] = Solubility in water (ICP-MS); conditions: 25 °C, limit of detection = 5 ppt
Method: sonication, the mixtures were stirred at 25 °C for 1 h. The saturated solutions were filtered
to remove any insoluble solids, dissolved in 0.5 mL of MilliQ water, and analyzed using
ICP-MS. Samples were submitted to acidic digestion with 2 mL of concentrated HNO3
min to heat to 100°C and keep at 100°C for 60 min. After the digestion, the sample
volumes were precisely adjusted to 5 mL with MilliQ water. Samples were further diluted
30 times with 2% HNO3 solution and their Ru content was analyzed by ICP-MS using
standard mode on NexIon 350 D ICP-MS instrument (PerkinElmer). Yttrium was added
as an internal standard at a concentration of 2 ppb to all the solution and Ru quantitation
was performed using an external calibration curve with standards in the 0.05-50 ppb

[2] = Molar conductivity in acetonitrile; type: physicochemical; conditions: 1 mM in acetonitrile, 25 °C
Method: The molar conductivity (ΛM, reported as S·cm2·mol–1) of solutions of 11CA in acetonitrile (1 mM) were measured in a Radiometer Copenhagen CDM92 equipped with a conductivity cell CDC641T glass platinum electrode at room temperature (25 °C). The conductivity of the pure solvent was used as standard controls.
Table S3. Solubility in water at 25 °C, n-octanol/water partition coefficient and molar conductivity of the 11CA. * below limit of detection = 5 ppt.

[3] = n-octanol/water partition coefficient (shake-flask, ICP-MS)
Method: The saturated solutions were filtered
(DigiPREP Jr. 15ml, 40 Pos, SCP Science). The digestion program was the following: 15
After the digestion, the sample
Samples were further diluted
range. All measurements were performed in triplicates.
lipophilicity of a compound. This assay was performed following the Shake-flask method
organic and aqueous phase. Aliquots of each phase were taken and analyzed separately
range. The partition coefficient was calculated as P!"=
respectively. All measurements were performed in triplicates.

ctDNA = test: Circular dichroism / induced circular dichroism with calf thymus DNA; conditions: DNA, 24 h, 37 °C
Method: Calf thymus (ct) DNA (Merck®) was used to perform the circular dichroism assay to detect conformational changes in the ctDNA induced by the compounds. CD spectral data was collected on a Chirascan™ V100 (Applied Photophysics) spectropolarimeter equipped with a large area Avalanche photodiodes detector and computer-controlled thermoelectrical cell holder using a 1 cm path length quartz cuvette. CD spectra of ctDNA in the absence and presence of different concentrations of 11Cl were recorded at wavelengths ranging from 320 to 190 nm under constant nitrogen flush at 25 °C. For each CD spectrum, the number of scans was set to 5, and spectral data were collected at 0.1 ms intervals. Additionally, methyl green (MG) and 4′,6-diamidino-2-phenylindole (DAPI), and propidium iodide (PI) were analyzed as minor and major groove binders and as an intercalator, respectively, to help identify the binding mode of 11Cl to DNA. Samples were prepared in 10 mM Tris-HCl buffer (pH 7.6) with 1 mM EDTA. The concentration of ctDNA was fixed at 100 μM (concerning base pairs) and the ctDNA to 11Cl ratio was varied between 0 and 1. The samples were incubated for 24 h at 37 °C and then analyzed in the CD spectropolarimeter.

[4] = 24 h exposure, MTT, read-out: IC50 (µM) (average ± standard deviation) 24 h L929
[5] = 72 h exposure, MTT, read-out: IC50 (μM) (average ± standard deviation) 72 h L929
[6] = 24 h exposure, MTT, read-out: IC50 (µM) (average ± standard deviation) 24 h MCF-7
[7] = 72 h exposure, MTT, read-out: IC50 (μM) (average ± standard deviation) 72 h MCF-7
[8] = 24 h exposure, MTT, read-out: IC50 (µM) (average ± standard deviation) 24 h MDA-MB-231
[9] = 72 h exposure, MTT, read-out: IC50 (μM) (average ± standard deviation) 72 h MDA-MB-231
[10] = sodium counteranion salts, 24 h, read-out: IC50 in L929 cell line Mean ± SD 24 h
[11] = sodium counteranion salts, 72 h, read-out: IC50 in L929 cell line Mean ± SD 72h
[12] = sodium counteranion salts, 24 h, read-out: IC50 in MCF-7 cell line Mean ± SD 24 h
[13] = sodium counteranion salts, 72 h, read-out: IC50 in MCF-7 cell line Mean ± SD 72h
[14] = sodium counteranion salts, 24 h, read-out: IC50 in MDA-MB-231 cell line Mean ± SD 24 h
[15] = sodium counteranion salts, 72 h, read-out: IC50 in MDA-MB-231 cell line Mean ± SD 72h

SMILES	SI (selectivity index) (L929; 24 h)	IC50 (L929; [4]) [µM]	SI (selectivity index) (L929; 72 h)	IC50 (L929; [5]) [µM]	IC50 (MCF-7; [6]) [µM]	IC50 (MCF-7; [7]) [µM]	IC50 (MDA-MB-231; [8]) [µM]	IC50 (MDA-MB-231; [9]) [µM]	IC50 (L929; [10]) [µM]	IC50 (L929; [11]) [µM]	IC50 (MCF-7; [12]) [µM]	IC50 (MCF-7; [13]) [µM]	IC50 (MDA-MB-231; [14]) [µM]	IC50 (MDA-MB-231; [15]) [µM]	other results
Cc1c(C)c(C)[c-](C)c1C.[Cl][Ru+]([PH]12CN3CN(CN(C3)C1)C2)[PH]12CN3CN(CN(C3)C1)C2 [Compound 2]	1.6	537 ± 29	1.1	64 ± 4	403 ± 9	51 ± 6	286 ± 7	63 ± 3							
C[NH+](C)Cc1ccccc1.[Cl-].[Cl][Ru]([Cl])[PH]12CN3CN(CN(C3)C1)C2 [Compound 3]	1.8	749 ± 45	1.5	84 ± 5	463 ± 19	51 ± 4	357 ± 7	60 ± 3							
Cc1ccc(C(C)C)cc1.[Br][Ru]([Br])[PH]12CN3CN(CN(C3)C1)C2 [Compound 6]	1.8	670 ± 60	1.2	82 ± 3	376 ± 15	74 ± 7	388 ± 12	63 ± 5							
Cc1ccc(C(C)C)cc1.O=C1[O][Ru]([PH]23CN4CN(CN(C4)C2)C3)[O]C1=O [Compound 7]		570 ± 18		104 ± 4	407 ± 17	62 ± 4	513 ± 16	83 ± 5							
Cc1ccc(CCC(=O)O)cc1.O=C1[O][Ru]([PH]23CN4CN(CN(C4)C2)C3)[O]C1=O [Compound 8]		572 ± 33		50 ± 3	213 ± 8	41 ± 5	284 ± 7	50 ± 2							
Cc1ccccc1.[Cl][Ru]([Cl])[PH](c1ccccc1)(c1ccccc1)c1ccccc1 [Compound 9]	2.3	544 ± 12	1.5	70 ± 4	304 ± 19	52 ± 7	164 ± 2	44 ± 3							Solubility (μM) [1]: 65 ± 8 µM; Solubility (μg/mL) [1]: 34 ± 4 µg/mL
Cc1cccc[c]1[Ru+]([Cl])([PH](c1ccccc1)(c1ccccc1)c1ccccc1)[PH](c1ccccc1)(c1ccccc1)c1ccccc1.F[B-](F)(F)F [Compound 11BF4]	0.8	3.8 ± 0.4	6.8	1.13 ± 0.05	5.4 ± 0.6	0.14 ± 0.01	4.3 ± 0.4	0.19 ± 0.01							Solubility (μM) [1]: 5 ± 2 µM; Solubility (μg/mL) [1]: 4 ± 1 µg/mL; Conductivity (molar conductivity) [2]: 124 S·cm2/mol; LogPow [3]: 1.60 ± 0.20
Cc1cccc[c]1[Ru+]([Cl])([PH](c1ccccc1)(c1ccccc1)c1ccccc1)[PH](c1ccccc1)(c1ccccc1)c1ccccc1.O=[N+]([O-])[O-] [Compound 11NO3]	0.7	3.7 ± 0.4	11.1	1.04 ± 0.05	5.9 ± 0.5	0.078 ± 0.005	4.6 ± 0.3	0.109 ± 0.009							Solubility (μM) [1]: 268 ± 42 µM; Solubility (μg/mL) [1]: 218 ± 34 µg/mL; Conductivity (molar conductivity) [2]: 141 S·cm2/mol; LogPow [3]: 1.57 ± 0.29
Cc1cccc[c]1[Ru+]([Cl])([PH](c1ccccc1)(c1ccccc1)c1ccccc1)[PH](c1ccccc1)(c1ccccc1)c1ccccc1.F[P-](F)(F)(F)(F)F [Compound 11PF6]	2.5	10 ± 1	1.1	0.17 ± 0.01	3 ± 0.3	0.15 ± 0.01	5 ± 0.1	0.16 ± 0.01							Solubility (μM) [1]: 0.6 ± 0.2 µM; Solubility (μg/mL) [1]: 0.6 ± 0.2 µg/mL; Conductivity (molar conductivity) [2]: 150 S·cm2/mol; LogPow [3]: 1.91 ± 0.23
F[B-](F)(F)F.[Na+] [NaBF4, reference compound]									923 ± 77	386 ± 49	> 2000	343 ± 39	> 2000	347 ± 19	
c1ccc([B-](c2ccccc2)(c2ccccc2)c2ccccc2)cc1 [NaBPh4, reference compound]									186 ± 11	55 ± 4	217 ± 44	102 ± 14	441 ± 61	149 ± 13	
[Cl-].[Na+] [NaCl, reference compound]									782 ± 55	274 ± 31	> 2000	280 ± 33	> 2000	398 ± 38	
O=[N+]([O-])[O-].[Na+] [NaNO3, reference compound]									> 1000	331 ± 57	> 2000	262 ± 38	> 2000	334 ± 23	
O=S(=O)([O-])C(F)(F)F.[Na+] [NaOTf, reference compound]									> 1000	159 ± 20	> 2000	279 ± 30	> 2000	354 ± 27	
F[P-](F)(F)(F)(F)F.[Na+] [NaPF6, reference compound]									759 ± 77	297 ± 24	> 2000	311 ± 27	> 1000	329 ± 17	
[F][Sb-]([F])([F])([F])([F])[F].[Na+] [NaSbF6, reference compound]									693 ± 53	180 ± 22	> 1000	234 ± 24	689 ± 61	236 ± 13	
CC[N+](C)(CC)CCC[n+]1c(-c2ccccc2)c2cc(N)ccc2c2ccc(N)cc21.[I-].[I-] [PI, propidium iodide]															CD band 220 nm (hydrogen bonding), intensity change (ctDNA): Unchanged; CD band 220 nm (hydrogen bonding), wavelength shift (ctDNA): Blue shift; CD band 246 nm (helicity), intensity change (ctDNA): Hyperchromic; CD band 246 nm (helicity), wavelength shift (ctDNA): Unchanged; CD band 268−280 nm (base-pair stacking interactions), intensity change (ctDNA): Hyperchromic; CD band 268−280 nm (base-pair stacking interactions), wavelength shift (ctDNA): Unchanged
